{"source": "paper PMC12272882", "about": "“Ancestral evolution of oxidase activity in a class of (S)-nicotine and (S)-6-hydroxynicotine-degrading flavoenzymes” (The Journal of Biological Chemistry, 2025)", "key": {"[1]": {"biological_target": "T1, Node A (synthetic construct, UniProt Z9LAG0LSP2)", "T1 construct": "ancestral reconstruction", "T1 sequence (Z9LAG0LSP2 1-442)": "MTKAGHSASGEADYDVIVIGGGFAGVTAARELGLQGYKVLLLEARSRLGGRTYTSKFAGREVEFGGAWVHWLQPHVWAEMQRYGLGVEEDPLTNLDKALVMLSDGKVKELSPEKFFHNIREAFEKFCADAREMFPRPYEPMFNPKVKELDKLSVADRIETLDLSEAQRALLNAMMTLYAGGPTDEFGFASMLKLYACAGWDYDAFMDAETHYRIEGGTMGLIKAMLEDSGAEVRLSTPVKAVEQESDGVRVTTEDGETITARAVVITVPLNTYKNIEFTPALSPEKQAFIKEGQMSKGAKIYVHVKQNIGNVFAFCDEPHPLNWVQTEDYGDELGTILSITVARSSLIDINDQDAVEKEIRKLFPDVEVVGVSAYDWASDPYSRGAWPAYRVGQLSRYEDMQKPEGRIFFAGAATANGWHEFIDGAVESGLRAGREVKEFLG", "assay": "anaerobic stopped-flow flavin reduction at […] nm", "format": "biochemical", "settings": "pH 7.5, 4 °C, no O2"}, "[2]": {"tested_on": "Node D", "settings": "pH 7.5, 4 °C, no O2; binding to oxidized enzyme; biphasic"}, "[3]": {"tested_on": "Node D", "settings": "pH 7.5, 4 °C, no O2; binding to oxidized enzyme; biphasic", "remark": "listed apart in the source"}, "[4]": {"tested_on": "Node D", "settings": "pH 7.5, 4 °C, no O2; binding to oxidized enzyme; biphasic", "remark": "listed apart in the source"}, "[5]": {"biological_target": "T2, Node D (synthetic construct, UniProt Z9ZYW4GBP2)", "T2 construct": "ancestral reconstruction; N-terminal MTKAGHSASGEA peptide (from Node D's own predicted N-terminal region), C-terminal His tag, pET29b, E. coli BL21(DE3); 431 positions", "assay": "absorbance spectrum of purified enzyme", "format": "binding", "settings": "as purified"}, "[6]": {"biological_target": "T3, NctB (Shinella sp. HZN7, UniProt A0A075BSX9)", "T3 construct": "synthetic gene in pET29b, C-terminal His tag, E. coli BL21(DE3); FAD holoenzyme", "T3 sequence (A0A075BSX9 whole entry)": "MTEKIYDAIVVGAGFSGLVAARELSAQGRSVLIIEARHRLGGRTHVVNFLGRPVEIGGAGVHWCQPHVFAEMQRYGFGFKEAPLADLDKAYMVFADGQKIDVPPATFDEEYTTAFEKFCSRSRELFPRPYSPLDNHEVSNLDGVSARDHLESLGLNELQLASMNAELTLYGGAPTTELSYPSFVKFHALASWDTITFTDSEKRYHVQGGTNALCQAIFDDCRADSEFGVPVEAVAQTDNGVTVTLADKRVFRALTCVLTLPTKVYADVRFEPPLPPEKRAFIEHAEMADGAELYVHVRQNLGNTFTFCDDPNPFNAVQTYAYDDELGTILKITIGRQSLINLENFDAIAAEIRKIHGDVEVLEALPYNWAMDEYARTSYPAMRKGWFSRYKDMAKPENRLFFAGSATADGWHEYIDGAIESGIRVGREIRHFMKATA", "assay": "absorbance spectrum of purified enzyme", "format": "binding", "settings": "as purified"}, "[7]": {"biological_target": "T4, Node C (synthetic construct, UniProt Z9TTH1JYZ3)", "T4 construct": "ancestral reconstruction; N-terminal MTKAGHSASGEA peptide added, C-terminal His tag, pET29b, E. coli BL21(DE3); 431 positions", "assay": "absorbance spectrum of purified enzyme", "format": "binding", "settings": "as purified"}, "[8]": {"biological_target": "T1, Node A", "assay": "absorbance spectrum of purified enzyme", "format": "binding", "settings": "as purified"}, "[9]": {"biological_target": "T5, Node B (synthetic construct, UniProt Z9QPI4SOH8)", "T5 construct": "ancestral reconstruction", "assay": "absorbance spectrum of purified enzyme", "format": "binding", "settings": "as purified"}}, "note": "Read-outs that look alike come from different tables or passages of the source.", "data": [{"smiles": "CN1CCC[C@H]1c1ccc(O)nc1", "note": "[6OHN, (S)-6-hydroxynicotine]", "values": [{"measurement": "anaerobic stopped-flow flavin reduction at 450 nm", "setting": "[1]", "value": "Node A reacted poorly with both nicotine and 6OHN"}, {"measurement": "Kd", "setting": "[2]", "value": "All three mutants were capable of reacting with 6OHN"}, {"measurement": "Kd", "setting": "[3]", "value": "All three mutants were capable of reacting with 6OHN"}, {"measurement": "Kd", "setting": "[4]", "value": "All three mutants were capable of reacting with 6OHN"}]}, {"smiles": "CN1CCC[C@H]1c1cccnc1", "note": "[(S)-nicotine]", "values": [{"measurement": "anaerobic stopped-flow flavin reduction at 450 nm", "setting": "[1]", "value": "Node A reacted poorly with both nicotine and 6OHN"}]}, {"smiles": "Cc1cc2nc3c(=O)[nH]c(=O)nc-3n(C[C@H](O)[C@H](O)[C@H](O)COP(=O)(O)OP(=O)(O)OC[C@H]3O[C@@H](n4cnc5c(N)ncnc54)[C@H](O)[C@@H]3O)c2cc1C", "note": "[FAD, flavin adenine dinucleotide]", "values": [{"measurement": "absorbance spectrum of purified enzyme", "setting": "[5]", "value": "All ASR constructs purified with FAD bound"}, {"measurement": "absorbance spectrum of purified enzyme", "setting": "[6]", "value": "all of the ASR enzymes and NctB have typical spectra of oxidized FAD"}, {"measurement": "absorbance spectrum of purified enzyme", "setting": "[7]", "value": "All ASR constructs purified with FAD bound"}, {"measurement": "absorbance spectrum of purified enzyme", "setting": "[8]", "value": "All ASR constructs purified with FAD bound"}, {"measurement": "absorbance spectrum of purified enzyme", "setting": "[9]", "value": "All ASR constructs purified with FAD bound"}]}]}
